# Test results taken from a melting point compilation (Tetko et al.; mined from patent text by program, amines drawn as free bases though some values may be those of a salt).
row,Structure (SMILES),melting point
1,O=C1N(Cc2ccc(C(F)(F)F)o2)c2ccccc2C12COc1cc(NC3CCNC3)ccc12 (stereo not given),122 to 125 °C
2,CCOC(=O)c1cnn2c1c(Cl)nc1c(C)nn(C)c12,130 to 132 °C
3,c1ccc(CC23CCN(CC2)CC3)cc1,48 °C
4,COc1cc2c(c3c1OC(C)(C)C3)C(c1cccc(NC(=O)NCCCl)c1)=NC(C)(C)C2,147 to 150 °C
5,CCOc1nsc(N)c1C#N,216 to 217 °C
6,CON=C(C#N)C(=O)Nc1ccc(OC(F)C(F)(F)F)cc1 (stereo not given),109 to 110 °C
7,COc1ccc(S(=O)(=O)Nc2ccccc2NC(=O)c2ccccc2)cc1OC,183 to 184 °C
8,Cc1noc2cc3c(cc12)C1(CO3)C(=O)N(Cc2ccc(-c3cc(N)n[nH]3)cc2)c2ccccc21 (stereo not given),191 to 195 °C
9,O=c1ccc(C(c2ccccc2)c2ccccc2)n[nH]1,161 to 162 °C
10,CNS(=O)(=O)c1ccccc1Nc1nc(Nc2ccc3c(c2)CCCC(=O)N3CC(=O)OC)ncc1Cl,237 to 239 °C
11,Cc1cn(Nc2cccc(Cl)c2)c(=S)n1-c1ccc(Br)cc1,220 °C
12,CCCc1cccc(C2(c3ccc(OC(F)(F)F)cc3)N=C(N)N3CCCN=C32)c1 (stereo not given),75 to 79 °C
13,COc1ccc(Cl)cc1C1=NCCO1,100 to 101 °C
14,C#CCn1c(=O)cc(-c2ccccc2)c2cccnc21,127 to 129 °C
15,COc1cccc(C23CCN(Cc4ccccc4)C(CC(=O)C2)C3)c1 (stereo not given),108 to 109 °C
16,O=C1NC(=O)C(c2ccc(O)cc2)N1 (stereo not given),262 °C
17,N#Cc1ccc(CC23CCCN2C(=O)N(c2cc(Cl)cc(-n4cccc4C=O)c2)C3=O)cc1 (stereo not given),110 °C
18,O=C(O)c1cc(=O)c2cc(C(F)(F)F)ccc2[nH]1,287 to 289 °C
19,CCCS(=O)(=O)C(c1cnc(C(N)=O)cc1C)c1c(F)ccc(F)c1F (stereo not given),202 to 204 °C
20,C=CCNC(=S)NNCC1CC2c3cccc4[nH]cc(c34)CC2N(C)C1 (stereo not given),207 to 208 °C
21,COC(=O)c1ccc(-c2nnc(-c3ccc(OC(F)(F)C(F)(F)F)cc3)o2)cc1,185 to 191 °C

# Continued, values first:
row,melting point,Structure (SMILES)
1,> 300 °C,CCCn1c(=O)c2c(NC)n[nH]c2n(Cc2cccnc2)c1=O
2,270 to 272 °C,O=C(O)c1ccc(NC(=O)c2ccc(Br)nc2)nc1
3,257 °C,O=C(Nc1cccc(S(=O)(=O)NC2CC2)c1)c1cnn2c(C(F)(F)F)cc(-c3ccc(Cl)cc3)nc12
4,159 to 160 °C,ClCc1ccc(OCCOc2ccccc2)cc1
5,144 to 145 °C,COc1cc(Oc2ccc(S(C)(=O)=O)cc2)cc2cc(C3=NCC(CC(=O)O)S3)[nH]c12 (stereo not given)
6,242 to 243 °C,O=C(O)c1cnn2c(C3CC3)cc(-c3ccc(Cl)cc3)nc12
7,258 to 259 °C,O=C(O)c1ccc2c(c1)C=C(Cn1ccnc1)CO2
8,176 to 178 °C,Cc1c(NC(=O)c2ccc(-c3ccc(F)cc3)cc2F)ccc2cc(CN3CCCC3)cnc12
9,140 to 142 °C,Nn1cnc2cc(C(F)(F)F)ccc21
10,106 to 109 °C,Cc1ccc(C(=O)CCCOC(=O)Nc2ccccc2)cc1
11,324 °C,CNC(=O)c1c[nH]c2ccc(C(=O)c3c(C)c(OC)c4ccccn34)cc2c1=O
12,128 to 129 °C,CN1C(c2ccc(F)cc2)=NC(C(F)(F)F)(C(F)(F)F)C1NC(=O)c1ccc(N2CCCCC2)cc1 (stereo not given)
13,142 to 144 °C,CC(=O)Nc1ccc(Sc2ccccc2)cc1
14,203 to 204 °C,CCOC(=O)C=C(C)C=CC=C(C)C=Cc1c(C)cc(OC)c(OC)c1C
15,229 to 234 °C,COc1cc(OC)nc(OC(C(=O)O)C(C)(c2ccccc2)c2ccccc2)n1 (stereo not given)
16,182 to 183 °C,CCCOc1ncc(S(C)(=O)=O)cc1-c1nc2c(CC)nn(C[C@@H]3CCCN3C)c2c(=O)[nH]1
17,55 °C,CCCCC(NC(=O)C(CS)C(C)c1ccccc1)C(=O)O (stereo not given)
18,172 to 176 °C,Cc1cc(C)n(C(=O)c2cn3c(C)csc3n2)n1
19,140 to 142 °C,CN(C)C(=O)n1nc(-c2ccncc2)nc1-c1ccncc1
